Measured values taken from PubChem BioAssay AID1259407 (Chemical Carcinogenesis Research Information System (CCRIS), 2018).
Calls of active or inactive are those of the source. No rule for the calls is given here.

System: CCRIS mutagenicity, Ames/micronucleus/aberration tests
Assay: CCRIS mutagenicity studies
[1] = Test System: AMES SALMONELLA TYPHIMURIUM, Strain/Indicator: TA100, Metabolic Activation: RAT, LIVER, S-9, KC500 OR PHENOBARBITAL, Method: LIQUID SUSPENSION
[2] = Test System: AMES SALMONELLA TYPHIMURIUM, Strain/Indicator: TA98, Metabolic Activation: NONE, Method: STANDARD PLATE
[3] = Test System: AMES SALMONELLA TYPHIMURIUM, Strain/Indicator: TA100, Metabolic Activation: NONE, Method: STANDARD PLATE
[4] = Test System: AMES SALMONELLA TYPHIMURIUM, Strain/Indicator: TA1535, Metabolic Activation: NONE, Method: STANDARD PLATE
[5] = Test System: AMES SALMONELLA TYPHIMURIUM, Strain/Indicator: TA100, Metabolic Activation: NONE, Method: PREINCUBATION
[6] = Test System: AMES SALMONELLA TYPHIMURIUM, Strain/Indicator: TA98, Metabolic Activation: RAT, LIVER, S-9, AROCLOR 1254, Method: STANDARD PLATE

Q: For `CC(=O)Nc1ccc(-c2ccccc2)cc1`, which mutagenic call (Test System: AMES SALMONELLA TYPHIMURIUM, Strain/Indicator: TA98, Metabolic Activation: RAT, LIVER, S-9, KC500 OR PHENOBARBITAL, Method: LIQUID SUSPENSION) is on record?
A: active; positive

Q: What about the mutagenic call (Test System: AMES SALMONELLA TYPHIMURIUM, Strain/Indicator: TA100 (1,8-DNP), Metabolic Activation: MOUSE LIVER S-9, AROCLOR 1254, 10%, Method: PREINCUBATION) of the same compound?
A: active; positive

Q: And the mutagenic call (Test System: AMES SALMONELLA TYPHIMURIUM, Strain/Indicator: TA100 (1,8-DNP), Metabolic Activation: RAT LIVER S-9, AROCLOR 1254, 10%, Method: PREINCUBATION)?
A: active; positive

Q: And the mutagenic call (Test System: AMES SALMONELLA TYPHIMURIUM, Strain/Indicator: TA100, Metabolic Activation: MOUSE LIVER S-9, AROCLOR 1254, 10%, Method: PREINCUBATION)?
A: active; positive

Q: What about the mutagenic call (Test System: AMES SALMONELLA TYPHIMURIUM, Strain/Indicator: TA100, Metabolic Activation: RAT LIVER S-9, AROCLOR 1254, 10%, Method: PREINCUBATION) of the same compound?
A: active; positive

Q: What about the mutagenic call [1] of the same compound?
A: active; positive

Q: What about the mutagenic call (Test System: AMES SALMONELLA TYPHIMURIUM, Strain/Indicator: YG1029, Metabolic Activation: MOUSE LIVER S-9, AROCLOR 1254, 10%, Method: PREINCUBATION) of the same compound?
A: active; positive

Q: What about the mutagenic call (Test System: AMES SALMONELLA TYPHIMURIUM, Strain/Indicator: YG1029, Metabolic Activation: RAT LIVER S-9, AROCLOR 1254, 10%, Method: PREINCUBATION) of the same compound?
A: active; positive

Q: Which mutagenic call (Test System: AMES SALMONELLA TYPHIMURIUM, Strain/Indicator: TA98, Metabolic Activation: NONE, Method: SUSPENSION/PLATE) does the source give for `[CH3][Sn]([CH3])([Cl])[Cl]` here?
A: inactive; negative

Q: What about the mutagenic call (Test System: AMES SALMONELLA TYPHIMURIUM, Strain/Indicator: TA100, Metabolic Activation: NONE, Method: SUSPENSION/PLATE) of the same compound?
A: inactive; negative

Q: With `O=C(NCCCl)Sc1ncnc2nc[nH]c12` as the compound, how does the mutagenic call (Test System: AMES SALMONELLA TYPHIMURIUM, Strain/Indicator: TA97, Metabolic Activation: NONE, Method: STANDARD PLATE) read?
A: inactive; negative

Q: And the mutagenic call (Test System: AMES SALMONELLA TYPHIMURIUM, Strain/Indicator: TA97, Metabolic Activation: RAT, LIVER, S-9, PHENOBARBITAL AND ALPHA-NAPHTHOFLAVONE, Method: STANDARD PLATE)?
A: inactive; negative

Q: What about the mutagenic call [2] of the same compound?
A: inactive; negative

Q: And the mutagenic call (Test System: AMES SALMONELLA TYPHIMURIUM, Strain/Indicator: TA98, Metabolic Activation: RAT, LIVER, S-9, PHENOBARBITAL AND ALPHA-NAPHTHOFLAVONE, Method: STANDARD PLATE)?
A: inactive; negative

Q: And the mutagenic call [3]?
A: inactive; negative

Q: What about the mutagenic call (Test System: AMES SALMONELLA TYPHIMURIUM, Strain/Indicator: TA100, Metabolic Activation: RAT, LIVER, S-9, PHENOBARBITAL AND ALPHA-NAPHTHOFLAVONE, Method: STANDARD PLATE) of the same compound?
A: inactive; negative

Q: What about the mutagenic call [4] of the same compound?
A: active; positive

Q: And the mutagenic call (Test System: AMES SALMONELLA TYPHIMURIUM, Strain/Indicator: TA1535, Metabolic Activation: RAT, LIVER, S-9, PHENOBARBITAL AND ALPHA-NAPHTHOFLAVONE, Method: STANDARD PLATE)?
A: active; positive

Q: How did the mutagenic call (Test System: AMES SALMONELLA TYPHIMURIUM, Strain/Indicator: TA98, Metabolic Activation: NONE, Method: PREINCUBATION) turn out when `CCC(=O)OCc1cccc([N+](=O)[O-])c1` was run?
A: inactive; negative

Q: What about the mutagenic call [5] of the same compound?
A: inactive; negative

Q: And the mutagenic call (Test System: AMES SALMONELLA TYPHIMURIUM, Strain/Indicator: TA100, Metabolic Activation: RAT, LIVER, S-9, AROCLOR 1254, Method: PREINCUBATION)?
A: inactive; negative

Q: With `O[C@@H]1C=Cc2c(cc3ccc4cccc5ccc2c3c45)[C@@H]1O` as the compound, how does the mutagenic call [6] read?
A: active; positive

Q: Which mutagenic call (Test System: AMES SALMONELLA TYPHIMURIUM, Strain/Indicator: TA98, Metabolic Activation: HAMSTER, LIVER, S-9, AROCLOR 1254, Method: STANDARD PLATE) does the source give for `O=C(/C=N/O)Nc1ccccc1` here?
A: inactive; negative

Q: And the mutagenic call [2]?
A: inactive; negative

Q: And the mutagenic call [6]?
A: inactive; negative

Q: And the mutagenic call (Test System: AMES SALMONELLA TYPHIMURIUM, Strain/Indicator: TA100, Metabolic Activation: HAMSTER, LIVER, S-9, AROCLOR 1254, Method: STANDARD PLATE)?
A: inactive; negative

Q: What about the mutagenic call [3] of the same compound?
A: inactive; negative

Q: What about the mutagenic call (Test System: AMES SALMONELLA TYPHIMURIUM, Strain/Indicator: TA100, Metabolic Activation: RAT, LIVER, S-9, AROCLOR 1254, Method: STANDARD PLATE) of the same compound?
A: inactive; negative

Q: And the mutagenic call (Test System: AMES SALMONELLA TYPHIMURIUM, Strain/Indicator: TA1535, Metabolic Activation: HAMSTER, LIVER, S-9, AROCLOR 1254, Method: STANDARD PLATE)?
A: inactive; negative

Q: And the mutagenic call [4]?
A: inactive; negative

Q: And the mutagenic call (Test System: AMES SALMONELLA TYPHIMURIUM, Strain/Indicator: TA1535, Metabolic Activation: RAT, LIVER, S-9, AROCLOR 1254, Method: STANDARD PLATE)?
A: inactive; negative

Q: And the mutagenic call (Test System: AMES SALMONELLA TYPHIMURIUM, Strain/Indicator: TA1537, Metabolic Activation: HAMSTER, LIVER, S-9, AROCLOR 1254, Method: STANDARD PLATE)?
A: inactive; negative

Q: What about the mutagenic call (Test System: AMES SALMONELLA TYPHIMURIUM, Strain/Indicator: TA1537, Metabolic Activation: NONE, Method: STANDARD PLATE) of the same compound?
A: inactive; negative

Q: And the mutagenic call (Test System: AMES SALMONELLA TYPHIMURIUM, Strain/Indicator: TA1537, Metabolic Activation: RAT, LIVER, S-9, AROCLOR 1254, Method: STANDARD PLATE)?
A: inactive; negative

Q: And the mutagenic call (Test System: MOUSE LYMPHOMA, Strain/Indicator: L5178Y (TK+/TK-), Metabolic Activation: RAT, LIVER, S-9, AROCLOR 1254, Method: SUSPENSION/PLATE)?
A: inactive; negative. reevaluation of results: negative

Q: What about the mutagenic call (Test System: Mouse lymphoma, Strain/Indicator: L5178Y (tk+/tk-), Metabolic Activation: None, Method: Suspension/plate) of the same compound?
A: active; equivocal (previous evaluation: positive)

Q: Which mutagenic call [1] does the source give for `CC1CN(/N=C/c2ccc([N+](=O)[O-])o2)C(=O)N1` (centres undefined) here?
A: active; positive

Q: `Cc1cc2ccccc2c2ccc3c(c12)[C@H]1O[C@H]1[C@@H](O)[C@H]3O` was tested. Which mutagenic call [5] did it give?
A: active; positive

Q: For `CCc1cc2ccccc2c2ccc3c(c12)[C@@H]1O[C@@H]1[C@H](O)[C@H]3O`, which mutagenic call [5] is on record?
A: active; positive
